# Data as given in patent US6194437A (Warner-Lambert Company, priority 1999, dated 2001).
# Assays:
# [1] = biological target: T1, cloned human GRP-preferring receptor (BB2) (Homo sapiens, UniProt P30550); experiment: Receptor binding assay, cloned human GRP-preferring receptor (BB2), [125I][Tyr4]bombesin displacement; conditions: CHO-K1 cell membranes, 90 minutes incubation
# T1 construct: expressed in transfected cells
# Method: The compounds of the invention have been evaluated in receptor binding assays which measure the affinity of the novel compounds in a cloned human NMB-preferring receptor (BB1) assay and in a cloned human GRP-preferring receptor (BB2) assay. Protocol for Binding Assays […] For binding experiments, cells were harvested by trypsinization, and stored frozen at -70° C. in Ham's F12 culture medium containing 5% DMSO until required. On the day of use, cells were thawed rapidly, diluted with an excess of culture medium, and centrifuged for 5 minutes at 2000 g. Cells were resuspended in 50 mM Tris-HCl assay buffer (pH 7.4 at 21° C., containing 0.02% BSA, 40 μg/ml bacitracin, 2 μg/mL chymostatin, 4 μg/mL leupeptin, and 2 μM phosphoramidon), counted, and polytronned (setting 5, 10 sec) before centrifuging for 10 minutes at 28,000 g. The final pellet was resuspended in assay buffer to a final cell concentration of 1.5×10^5 /mL. […] Radioactivity bound was determined using a gamma counter.
# [2] = biological target: T2, cloned human NMB-preferring receptor (BB1) (Homo sapiens, UniProt P28336); experiment: Receptor binding assay, cloned human NMB-preferring receptor (BB1), [125I][Tyr4]bombesin displacement; conditions: CHO-K1 cell membranes, 60 minutes incubation
# T2 construct: expressed in transfected cells
# Method: For binding experiments, cells were harvested by trypsinization, and stored frozen at -70° C. in Ham's F12 culture medium containing 5% DMSO until required. On the day of use, cells were thawed rapidly, diluted with an excess of culture medium, and centrifuged for 5 minutes at 2000 g. Cells were resuspended in 50 mM Tris-HCl assay buffer (pH 7.4 at 21° C., containing 0.02% BSA, 40 μg/ml bacitracin, 2 μg/mL chymostatin, 4 μg/mL leupeptin, and 2 μM phosphoramidon), counted, and polytronned (setting 5, 10 sec) before centrifuging for 10 minutes at 28,000 g. The final pellet was resuspended in assay buffer to a final cell concentration of 1.5×10^5 /mL. […] Radioactivity bound was determined using a gamma counter.
# [3] = biological target: T3, cloned human NMB-preferring receptors expressed in CHO cells (Homo sapiens, UniProt P28336); experiment: Measurement of intracellular calcium levels ([Ca2+]i mobilization, Fura-2) in CHO cells; assay type: cell-based; conditions: NMB-preferring receptor (BB1), read-out: [Ca2+]i Mobilization KE
# T3 construct: functional calcium (Fura-2) and Cytosensor acidification assays
# Method: (§1) The compounds of the invention have been tested in in vitro functional assays using cloned human NMB-preferring receptors expressed in CHO cells.
# (§2) Protocols for functional assays:
# 1. Measurement of intracellular calcium levels
# Culture of Chinese hamster ovary cells
# Chinese hamster ovary cells were routinely grown as monolayers in Ham's F12 nutrient mixture supplemented with 10% FBS and […], and maintained at 37° C. under 5% CO2. Cells were passaged every 3 to 4 days. At each passaging, cells were seeded at a density of 3 to 6 million per 175 cm^2 flask. […]
# Plated cells were incubated with 2 μM Fura-2-AM for between 45 and 120 minutes at 25° C. to 29° C. […] Single coverslips were then mounted in a chamber on top of an inverted fluorescence microscope and perfused with a Krebs-Hepes assay buffer (composition in mM: NaCl 118, KCl 4.7, MgSO4 1.2, CaCl^2 1.2, KH^2 PO^4 1.2, Hepes 10, glucose 11, pH 7.2 at 37° C.) {332}.
# Measurements of [Ca^2+ ]^i in individual cells were made from the fluorescence ratio (excitations […] for Fura-2) using a specially designed filter wheel assembly, CCD camera or photomuliplier tubes, and specially designed suites of software (MAGICAL OR phocal, Applied Imaging, Sunderland, UK) which samples emission following excitation at different wavelengths at regular intervals. […]
# [4] = biological target: T3, cloned human NMB-preferring receptors expressed in CHO cells; experiment: Measurement of extracellular acidification (CYTOSENSOR) in CHO-NMB cells; assay type: cell-based; conditions: NMB-preferring receptor (BB1), antagonist 30 minutes prior to agonist, 37° C.
# Description: as §1, §2
# 2. Measurement of extracellular acidification (CYTOSENSOR)
# This acidification rate is detected as a change in potential across a silicon light addressable sensor, during periods of media cessation (McConnell, et al., 1992).
# CHO-NMB Cells seeded on polycarbonate microporous capsule cups were placed insensor chambers at 37° C. inside the microphysiometer, and maintained by a flow of nonbuffering Ham's F12 nutrient media (growth media without NaHCO3, pH 7.3-7.4) at approximately 120 μL/min. The flow was halted for 22 seconds at the end of each 2 minute repeated cycle, and the rate of acidification (μ volts/sec) measured for 15 seconds during that period.
# Agonists were introduced sequentially every 28 to 30 minutes to the perfusing media, 20 seconds before flow-off periods, and removed after two rate measurements via the automatic valve-switch.
# The effects of various antagonists were determined after continuous perfusion 30 minutes prior to, and throughout the application of agonists. All agents were applied at the working pH of the media.
# T3 sequence (P28336 whole entry): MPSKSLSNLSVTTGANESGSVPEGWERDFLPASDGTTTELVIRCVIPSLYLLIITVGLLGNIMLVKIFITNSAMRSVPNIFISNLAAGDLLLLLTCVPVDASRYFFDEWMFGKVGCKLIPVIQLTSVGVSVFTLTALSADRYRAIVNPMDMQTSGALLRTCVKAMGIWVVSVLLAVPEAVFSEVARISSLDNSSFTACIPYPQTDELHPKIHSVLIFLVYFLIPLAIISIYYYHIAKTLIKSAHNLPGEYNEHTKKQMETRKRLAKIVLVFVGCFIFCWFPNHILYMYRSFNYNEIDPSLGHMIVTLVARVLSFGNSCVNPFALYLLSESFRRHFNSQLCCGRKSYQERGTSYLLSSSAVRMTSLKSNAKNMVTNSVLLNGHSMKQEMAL
# T2 sequence (P28336 whole entry): as above
# T1 sequence (P30550 whole entry): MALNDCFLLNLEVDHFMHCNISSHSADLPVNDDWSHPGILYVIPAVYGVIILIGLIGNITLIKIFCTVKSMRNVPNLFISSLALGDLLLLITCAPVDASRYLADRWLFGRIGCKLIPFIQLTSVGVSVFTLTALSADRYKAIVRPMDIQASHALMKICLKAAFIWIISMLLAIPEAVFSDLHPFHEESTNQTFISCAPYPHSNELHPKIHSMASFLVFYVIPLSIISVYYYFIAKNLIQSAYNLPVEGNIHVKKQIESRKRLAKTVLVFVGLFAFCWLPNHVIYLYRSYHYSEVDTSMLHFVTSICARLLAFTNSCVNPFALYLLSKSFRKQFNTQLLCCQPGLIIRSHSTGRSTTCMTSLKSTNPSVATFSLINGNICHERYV
Ki [1] [nM],Ki [2] [nM],Kb [3] [nM],Acidification Response appKB [4],Structure (SMILES)
> 10000,5,18,7.6,"CC(C)c1cccc(C(C)C)c1NC(=O)N[C@@](C)(Cc1c[nH]c2ccccc12)C(=O)NCC1(c2ccccn2)CCCCC1 [Example 1, 2-[3-(2,6-Diisopropyl-phenyl)-ureido]-3-(1H-indol-3-yl)-2-methyl-N-(1-pyridin-2-yl-cyclohexylmethyl)-propionamide]"
19,0.15,1.2,1.0,C[C@@](Cc1c[nH]c2ccccc12)(NC(=O)Nc1ccc([N+](=O)[O-])cc1)C(=O)NCC1(c2ccccn2)CCCCC1 [Example 14]
